From US20230348394A1, “COMPOSITIONS AND METHODS FOR TREATING MUSCULAR DYSTROPHIES” (The Regents of the University of California, priority 2020, published 2023)

What was measured:
SSPN mRNA [1] = test: SSPN gene expression in wild-type C2C12 myotubes; format: cell-based, mouse
Description: C2C12 cells (American Type Culture Collection) were grown at 37° C. with 5% CO2 in growth medium containing DMEM (Gibco) with 20% FBS (Sigma-Aldrich). Upon reaching 90-100% confluency, myoblasts were induced to differentiate by replacing the medium with differentiation medium consisting of DMEM with 2% horse serum (Sigma-Aldrich). Conditionally immortalized H2K WT and mdx myoblasts with a nonsense mutation in exon 23 of dystrophin were a gift from Terrance Partridge, Ph.D. (Children's National Medical Center, Washington, D.C.). See, Morgan et al., Dev Biol. 1994; 162(2):486-98 Myoblasts were allowed to proliferate on 0.01% gelatin (Sigma-Aldrich) coated plates at 33° C. with 5% CO2 with growth medium containing DMEM, 20% HI-FBS (Invitrogen), 2% L-glutamine (Sigma-Aldrich), 2% chicken embryo extract (Accurate Chemical), 1% penicillin-streptomycin (Sigma-Aldrich), and 20 U/ml of fresh interferon gamma (Gibco). […]
RNA from myotubes treated for 48 hrs was extracted from cells using Trizol-based (Thermo Fisher Scientific) phase separation, Chomczynski et al., Biotechniques. […] RNA concentrations were determined using a NanoDrop 1000 (Thermo Fisher Scientific) and 750 ng of RNA in a 20 Id reaction was reverse transcribed using iScript cDNA synthesis (Bio-Rad) with the following cycling conditions: 25° C. for 5 mins, 42° C. for 30 mins, 85° C. for 5 mins. For mouse qPCR, SsoFast EvaGreen Supermix (Bio-Rad), 400 nM of each optimized forward and reverse primer (SSPN F: 5′ […] 3′, SSPN R: 5′ […] 3′, BACT F: 5′ […] 3′, BACT R: 5′ […] 3′), and cDNA corresponding to 37.5 ng RNA were used to amplify cDNA measured by QuantStudio 5 Real-Time PCR System (Thermo Fisher Scientific) with the following reaction conditions: 55° C. for 2 mins, 95° C. for 2 mins, 40 cycles of 95° C. for 10 seconds and 62° C. for 30 seconds, and dissociation stage. […] Data was analyzed using the ddCT method and normalized to reference gene ACTB with vehicle-treated samples serving as the calibrator (relative expression of vehicle control=1). […]

SSPN mRNA [2] = test: siRNA-mediated knockdown of SSPN in mdx myotubes, SSPN mRNA; format: cell-based, murine
Description: RNA from myotubes treated for 48 hrs was extracted from cells using Trizol-based (Thermo Fisher Scientific) phase separation, Chomczynski et al., Biotechniques. 1993; 15(3):532-4, 6-7. RNA concentrations were determined using a NanoDrop 1000 (Thermo Fisher Scientific) and 750 ng of RNA in a 20 Id reaction was reverse transcribed using iScript cDNA synthesis (Bio-Rad) with the following cycling conditions: 25° C. for 5 mins, 42° C. for 30 mins, 85° C. for 5 mins. For mouse qPCR, SsoFast EvaGreen Supermix (Bio-Rad), 400 nM of each optimized forward and reverse primer (SSPN F: 5′ […] 3′, SSPN R: 5′ […] 3′, BACT F: 5′ […] 3′, BACT R: 5′ […] 3′), and cDNA corresponding to 37.5 ng RNA were used to amplify cDNA measured by QuantStudio 5 Real-Time PCR System (Thermo Fisher Scientific) with the following reaction conditions: 55° C. for 2 mins, 95° C. for 2 mins, 40 cycles of 95° C. for 10 seconds and 62° C. for 30 seconds, and dissociation stage. For qPCR of human samples, TaqMan assays were used to quantify SSPN (assay ID Hs01025520m 1) and ACTB (assay ID Hs01060665_g1) with the following reaction conditions: 50° C. for 2 mins, 95° C. for 10 mins, 40 cycles of 95° C. for 15 seconds and 62° C. for 1 minute. […] Data was analyzed using the ddCT method and normalized to reference gene ACTB with vehicle-treated samples serving as the calibrator (relative expression of vehicle control=1). […]

[3] = Preliminary safety assessment, IP injection in C57/B16 mice; format: in vivo
Description: For the preliminary safety assessment of OT-9, we performed IP injections in 6 month old C57/B16 males. The mice were injected with 100 μl of vehicle (5% DMSO (Sigma), 95% PBS), 100 μl of 30 mg/kg of OT-9 in vehicle, or 100 μl of 50 mg/kg of OT-9 in vehicle (n=1 mouse per treatment). […] For assessment of activity, 20-weeks old male mdx littermates were injected in both tibialis anterior muscles with vehicle (5% DMSO, 95% PBS) or 86 μg of OT-9. Two mice were injected in both TAs with vehicle and three mice were injected in both TAs with 200 of OT-9 (9.4 mM solution containing 86 μg of OT-9). After 4 hours, the muscles were harvested and processed for gene expression analysis. For assessment of activity of OT-9m after local administration, 19-22-weeks old mdx males were injected in both tibialis anterior muscles with vehicle (5% DMSO, 95% PBS) or 3 mg/kg and 10 mg/kg of OT-9m. After 4 hours, the muscles were harvested and processed for gene expression analysis. For assessment of activity of OT-9m after systemic administration, 13-weeks old mdx males were injected subcutaneously with vehicle (4% PEG-200 in hydroxypropyl-b-cyclodextrin) or 20 mg/kg/day of OT-9m. After 13 days of treatment, the muscles were harvested and processed for gene expression analysis.
To evaluate the in vivo safety and activity of OT-9, we performed two pilot studies in wild-type C57/B16 and mdx mice. For the preliminary safety assessment of OT-9, we performed IP injections in 6-month old C57/B16 males. The mice were injected with vehicle, 30 mg/kg of OT-9, or 50 mg/kg of OT-9 (n=1).

[4] = IP 30 mg/kg or 50 mg/kg, observed 72 hours, n=1

Structure (SMILES): CCN(CC)c1ccc2cc(C(=O)Nc3ccc(C(=O)N4CCCCCC4)cc3)c(=O)oc2c1 [OT-9]
- SSPN mRNA levels after compound removal (SSPN mRNA [1]; 5 μM for 4 hours, 4, 24 and 48 hours after compound removal): returned to baseline levels
- SSPN mRNA levels over the vehicle control (SSPN mRNA [1]; 5 μM for 4 hours, immediately after compound removal (0h)): 1.5 fold
- SSPN mRNA levels (SSPN mRNA [1]; 5 μM, 48 hours): increased SSPN mRNA levels
- SSPN mRNA levels under SSPN knockdown (SSPN mRNA [2]; 24 nM SSPN siRNA plus OT-9): increased SSPN mRNA levels
- increase of SSPN mRNA relative to the vehicle control (SSPN mRNA [2]; 24 nM scramble siRNA plus 1, 5 or 10 μM OT-9): up to 1.4 fold
- appearance of the dosing solution ([3]; 50 mg/kg solution in 5% DMSO, 95% PBS): some insoluble particles were observed
- liver, kidneys, pancreas and intestine [3, 4]: normal weight and size
- observation of the injection site [3, 4]: No signs of inflammation, necrosis or compound accumulation
